The values that follow come from PubChem BioAssay (NCI).

Test systems include SF-295 CNS; UACC-62 melanoma; CAKI-1 renal; SNB-75 CNS; EKVX NSCLC; UACC-257 melanoma; U251 CNS; HCC-2998 colon; SK-MEL-2 melanoma; SK-MEL-28 melanoma.
Common to all, as to assay: NCI tumour cell line growth inhibition, 48 h

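Interpolation was linear, between the two tested concentrations surrounding the appropriate level; five concentrations were tested over 48 hours in 96-well plates. GI50 is the concentration that inhibits growth by half. Definition used: TGI = concentration required for complete inhibition of growth.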

As for `COC(C)C(O)(C(=O)OCC1=CCN2CCC(O)C12)C(C)(C)O` (stereo not given), the TGI with SF-295 CNS, in the test on UACC-62 melanoma, in the test on CAKI-1 renal, in the test with SNB-75 CNS, with EKVX NSCLC and with UACC-257 melanoma was more than 100 µM in each case. The TGI with U251 CNS, with HCC-2998 colon, with SK-MEL-2 melanoma and with SK-MEL-28 melanoma was more than 100 µM throughout.
Take `CO[C@@]1(c2ccccc2)O[C@H]2OCCC2[C@H]1c1ccc(Cl)cc1` (stereo not given in full): the TGI in the test with SF-295 CNS was 59.7 µM; in the test with UACC-62 melanoma it was more than 100 µM; in the test on CAKI-1 renal it was more than 100 µM; with SNB-75 CNS, more than 100 µM; in the test with EKVX NSCLC it was 64.5 µM; with UACC-257 melanoma, 44.6 µM. In addition, the TGI with U251 CNS was 94 µM; with HCC-2998 colon, more than 100 µM; in the test with SK-MEL-2 melanoma, 80.9 µM; with SK-MEL-28 melanoma, more than 100 µM.
Turning to `O=C(Nc1cccc(C(F)(F)F)c1)Oc1ccc(Cl)c2cccnc12`, the GI50 with SF-295 CNS is 0.976 µM; in the test with UACC-62 melanoma, 1.15 µM; in the test on CAKI-1 renal, 2.03 µM; in the test with SNB-75 CNS, 2.59 µM; in the test with EKVX NSCLC, 1.83 µM; with UACC-257 melanoma it was 1.32 µM. For the same compound, the GI50 was 0.861 µM in the test on U251 CNS, 3.51 µM with HCC-2998 colon, 2.07 µM with SK-MEL-2 melanoma and 4.29 µM with SK-MEL-28 melanoma. In addition, the TGI in the test with SF-295 CNS turned out to be 6.93 µM; with UACC-62 melanoma it was 3.57 µM; in the test with CAKI-1 renal, 4.79 µM; in the test with SNB-75 CNS, 17.8 µM; in the test on EKVX NSCLC it was 6.88 µM; in the test with UACC-257 melanoma it was 3.24 µM. The TGI was 8.57 µM in the test on U251 CNS, 12.8 µM in the test with HCC-2998 colon, 5.55 µM in the test on SK-MEL-2 melanoma and 17.8 µM with SK-MEL-28 melanoma.
For the compound `C=C1C[C@@H]2C[C@@H](C)CC(O)[C@]2(CCCN)C1O` (stereo not given in full), the TGI in the test on SF-295 CNS, in the test on UACC-62 melanoma, in the test with CAKI-1 renal, with SNB-75 CNS, in the test with EKVX NSCLC and in the test with UACC-257 melanoma was more than 100 µM in each case. The TGI in the test with U251 CNS, in the test with HCC-2998 colon, with SK-MEL-2 melanoma and with SK-MEL-28 melanoma was more than 100 µM throughout.
For `C[C@@H]1CC[C@@]2(NC1)O[C@H]1C[C@H]3[C@@H]4CC[C@H]5C[C@@H](O)CC[C@]5(C)[C@H]4CC[C@]3(C)[C@H]1[C@@H]2C`, the TGI in the test on SF-295 CNS, in the test on UACC-62 melanoma, in the test on CAKI-1 renal, with SNB-75 CNS, in the test with EKVX NSCLC and in the test on UACC-257 melanoma was more than 100 µM throughout. Besides, the TGI with U251 CNS, with HCC-2998 colon, with SK-MEL-2 melanoma and in the test on SK-MEL-28 melanoma was more than 100 µM in each case.
As for `COc1ccc(-c2cc(=O)c3c(O)c(OC)c(OC)c(OC)c3o2)cc1`, the TGI in the test on SF-295 CNS is more than 100 µM; with UACC-62 melanoma, more than 100 µM; in the test with CAKI-1 renal, more than 100 µM; in the test with SNB-75 CNS it was more than 56.3 µM; in the test with EKVX NSCLC, more than 100 µM; in the test with UACC-257 melanoma it was more than 100 µM. Besides, the TGI in the test on U251 CNS is more than 100 µM; in the test with HCC-2998 colon, more than 20.4 µM; with SK-MEL-2 melanoma, more than 81.3 µM; with SK-MEL-28 melanoma, more than 100 µM.
Consider `C=C(C)[C@@H]1CC[C@]2(C(=O)NS(=O)(=O)c3ccccc3)CC[C@]3(C)[C@H](CC[C@@H]4[C@@]5(C)CC[C@H](OC(=O)NS(=O)(=O)c6ccccc6)C(C)(C)[C@@H]5CC[C@]43C)[C@@H]12`, for which the GI50 in the test on SF-295 CNS is 0.281 µM; with UACC-62 melanoma, 1.32 µM; in the test with CAKI-1 renal it was 3.06 µM; in the test with SNB-75 CNS, 3.44 µM; in the test with EKVX NSCLC, 3.17 µM; in the test with UACC-257 melanoma, 3.06 µM. The GI50 in the test on U251 CNS was 1.46 µM; in the test on HCC-2998 colon it was 1.42 µM; in the test with SK-MEL-2 melanoma, 2.01 µM; in the test with SK-MEL-28 melanoma, 2.05 µM. Besides, the TGI with SF-295 CNS is 2.23 µM; in the test with UACC-62 melanoma it was 2.92 µM; with CAKI-1 renal, 22.5 µM; in the test on SNB-75 CNS, 18.5 µM; with EKVX NSCLC it was 21.9 µM; with UACC-257 melanoma it was 9.06 µM. Besides, the TGI in the test with U251 CNS was found to be 5.96 µM; in the test on HCC-2998 colon, 2.85 µM; with SK-MEL-2 melanoma it was 4.97 µM; with SK-MEL-28 melanoma, 5.32 µM.
Regarding `COc1cc2cnc3c4cc(OCc5ccccc5)ccc4ccc3c2cc1OC`, the TGI was 82.9 µM in the test on SF-295 CNS; more than 100 µM in the test with UACC-62 melanoma; more than 100 µM with CAKI-1 renal; 18.7 µM with SNB-75 CNS; more than 100 µM in the test with EKVX NSCLC; more than 100 µM with UACC-257 melanoma. For the same compound, the TGI in the test on U251 CNS is more than 100 µM; in the test with HCC-2998 colon, more than 100 µM; with SK-MEL-2 melanoma it was 63 µM; in the test on SK-MEL-28 melanoma, more than 100 µM.
Turning to `Cc1cc(O)c(-c2ccc([C@@H](C)CN(C)C)cc2)c2c1[nH]c(=O)c1sccc12`, the GI50 with SF-295 CNS is 0.73 µM; in the test on UACC-62 melanoma, 1.32 µM; in the test on CAKI-1 renal, 1.82 µM; in the test with SNB-75 CNS it was 0.206 µM; with EKVX NSCLC it was 0.585 µM; with UACC-257 melanoma, 1.76 µM. Moreover, the GI50 is 0.399 µM in the test on U251 CNS, 1.06 µM with HCC-2998 colon, 0.679 µM with SK-MEL-2 melanoma and 1.33 µM in the test on SK-MEL-28 melanoma. The TGI in the test on SF-295 CNS worked out at 6.07 µM; in the test with UACC-62 melanoma, 4.99 µM; in the test on CAKI-1 renal, 33.4 µM; with SNB-75 CNS it was 3.02 µM; in the test on EKVX NSCLC, 6.23 µM; in the test on UACC-257 melanoma, 6.86 µM. The TGI with U251 CNS is 17.4 µM; in the test on HCC-2998 colon it was 12.6 µM; in the test with SK-MEL-2 melanoma it was 3.04 µM; with SK-MEL-28 melanoma it was 5.56 µM.
Consider `COc1cc(/C=N/N=C(\N)NO)c([N+](=O)[O-])cc1OC`, for which the TGI was more than 100 µM with SF-295 CNS; 59 µM in the test on UACC-62 melanoma; 76.2 µM with CAKI-1 renal; 78.9 µM in the test with SNB-75 CNS; more than 100 µM in the test with EKVX NSCLC; more than 100 µM with UACC-257 melanoma. Further, the TGI with U251 CNS, in the test on HCC-2998 colon, in the test with SK-MEL-2 melanoma and in the test on SK-MEL-28 melanoma was more than 100 µM each time.
